Laboratory results from patent publication US10266513B2 (Pfizer Inc., priority 2012, dated 2019).
Read-outs that look alike come from different tables or passages of the source.

Legend:
[1] = molecular target: human full-length BTK Kinase (Homo sapiens (Human), UniProt Q06187); assay: Human BTK LanthaScreen Assay (TR-FRET); assay type: biochemical; conditions: 50 μM ATP, FAM-Srctide peptide substrate, read-out: BTK Inhibition IC50
From the text: Human BTK LanthaScreen Assay

human EGFR kinase domain = human EGFR kinase domain (Homo sapiens (Human), UniProt P00533); assay: Human EGFR LanthaScreen Selectivity Assay (TR-FRET); assay type: biochemical; conditions: 20 μM ATP
Sequence of human EGFR kinase domain (P00533 712-979): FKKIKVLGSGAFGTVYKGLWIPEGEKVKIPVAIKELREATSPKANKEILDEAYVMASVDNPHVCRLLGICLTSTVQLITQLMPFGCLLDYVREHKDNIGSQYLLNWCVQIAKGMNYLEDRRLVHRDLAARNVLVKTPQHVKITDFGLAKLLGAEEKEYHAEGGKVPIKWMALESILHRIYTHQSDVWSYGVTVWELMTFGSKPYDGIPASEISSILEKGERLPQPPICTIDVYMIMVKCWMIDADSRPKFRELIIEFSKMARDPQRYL
Method: The kinase reaction mixtures were incubated at room temperature for 60 minutes before stopping the kinase activity by the addition of 15 mM EDTA. The extent of peptide phosphorylation by EGFR was detected using a Terbium-conjugated anti-phospho-Tyrosine antibody (Tb-PT66 antibody, invitrogen # PV3557).

human whole blood = assay: Human Whole Blood Histamine Assay (anti-IgE induced histamine release); assay type: cell-based; conditions: heparinized human whole blood, anti-human-IgE 2 μg/ml, histamine release by ELISA, read-out: HWB IC50
Method: Human Whole Blood Histamine Assay
Heparinized human whole blood (200 μl) was plated in 96-well V-bottom assay plates (VWR). Compounds diluted in 100% DMSO (1 μl) were added and incubated at 37° C. for 120 minutes. Anti-human-IgE antibody (KPL) was added to a final concentration of 2 μg/ml and assay plates incubated for 30 minutes at 37° C. Plates were spun at 2000 rpm for 8 minutes and the analyzed for histamine release by ELISA kits (Beckman Coulter).
Inhibition curves and IC50 values are determined using Excel-fit.

Human B cells = assay: Human Primary B Cell Proliferation Assay (3H-thymidine incorporation, anti-human IgM stimulated); assay type: cell-based; conditions: B-cell, purified human B cells, 50 μg/mL anti-human IgM F(ab')2, 72 hours
Method: Human Primary B Cell Proliferation Assay
Human B cells were purified from buffy coats using the human B cell RosetteSep kit per manufacturer's instructions. Purified cells were resuspended in RPMI-10% HIFCS, 2 mM L-glutamine, 100 U/mL penicillin, 100 μg/ml streptomycin, incubated with compounds for 1 hour at 37° C. and then stimulated with 50 μg/mL anti-human IgM F(ab′)2 for 72 hours. ^3H-thymidine was included in the culture media for the final 8-16 hours. Cells were harvested and ^3H-thymidine incorporation was measured.
Human B cell Proliferation Assay

Sequence of human full-length BTK Kinase (Q06187 whole entry): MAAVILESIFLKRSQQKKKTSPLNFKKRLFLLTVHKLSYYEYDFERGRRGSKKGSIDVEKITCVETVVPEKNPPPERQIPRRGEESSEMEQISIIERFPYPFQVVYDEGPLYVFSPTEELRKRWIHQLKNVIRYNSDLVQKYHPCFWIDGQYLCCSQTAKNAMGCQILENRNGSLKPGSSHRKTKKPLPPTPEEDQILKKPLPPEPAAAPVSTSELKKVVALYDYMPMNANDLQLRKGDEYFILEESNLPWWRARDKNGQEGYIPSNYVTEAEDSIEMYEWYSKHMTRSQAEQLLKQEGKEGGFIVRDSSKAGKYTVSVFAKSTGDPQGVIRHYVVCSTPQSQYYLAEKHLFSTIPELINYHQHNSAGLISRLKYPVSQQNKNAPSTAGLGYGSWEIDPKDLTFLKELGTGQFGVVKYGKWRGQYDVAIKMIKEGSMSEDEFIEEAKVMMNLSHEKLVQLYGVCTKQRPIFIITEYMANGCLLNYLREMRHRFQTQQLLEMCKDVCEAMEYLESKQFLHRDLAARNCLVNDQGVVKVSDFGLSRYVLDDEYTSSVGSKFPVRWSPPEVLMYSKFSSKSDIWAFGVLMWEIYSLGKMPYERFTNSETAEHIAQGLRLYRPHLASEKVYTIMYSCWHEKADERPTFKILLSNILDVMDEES

Structure (SMILES): N#CN1CCCC(n2nc(-c3ccc(Oc4ccccc4)cc3)c(C(N)=O)c2N)C1 (single isomer, unassigned) [Example 2]
- IC50 [1]: 0.37 nM
- IC50 (human EGFR kinase domain): 1710 nM
- IC50 (human whole blood): 33.3 nM
- IC50 (Human B cells): 0.5 nM

Structure (SMILES): N#CN1CCCC(n2nc(-c3ccc(Oc4ccc(Cl)cc4)cc3)c(C(N)=O)c2N)C1 (single isomer, unassigned) [Example 15]
- IC50 [1]: 0.64 nM
- IC50 (human EGFR kinase domain): 3890 nM
- IC50 (human whole blood): 20.6 nM
- IC50 (Human B cells): 1.7 nM

Structure (SMILES): N#CN1CCCC(n2nc(-c3ccc(Oc4ccc(F)cc4F)cc3)c(C(N)=O)c2N)C1 (single isomer, unassigned) [Example 27]
- IC50 [1]: 1.3 nM
- IC50 (human EGFR kinase domain): 16800 nM
- IC50 (human whole blood): 64.3 nM
- IC50 (Human B cells): 2.7 nM

Structure (SMILES): N#CN1CCC[C@@H](n2nc(-c3ccc(Oc4ccc(Cl)cn4)cc3)c(C(N)=O)c2N)C1 [Example 110, (R)-5-amino-3-(4-((5-chloropyridin-2-yl)oxy)phenyl)-1-(1-cyanopiperidin-3-yl)-1H-pyrazole-4-carboxamide]
- IC50 [1]: 9.2 nM
- IC50 (human EGFR kinase domain): > 15400 nM
- IC50 (human whole blood): 94.7 nM
- IC50 (Human B cells): 1.6 nM

Structure (SMILES): N#CN1CCC[C@@H](n2nc(-c3ccc(Oc4cccc(C(F)(F)F)n4)cc3)c(C(N)=O)c2N)C1 [Example 116, (R)-5-amino-1-(1-cyanopiperidin-3-yl)-3-(4-((6-(trifluoromethyl)pyridin-2-yl)oxy)phenyl)-1H-pyrazole-4-carboxamide]
- IC50 [1]: 2.6 nM
- IC50 (human EGFR kinase domain): > 26800 nM
- IC50 (human whole blood): 41.8 nM
- IC50 (Human B cells): 14.9 nM

Structure (SMILES): N#CN1CCC[C@@H](n2nc(-c3ccc(Oc4ncc(Cl)cc4F)cc3)c(C(N)=O)c2N)C1 [Example 118, (R)-5-amino-3-(4-((5-chloro-3-fluoropyridin-2-yl)oxy)phenyl)-1-(1-cyanopiperidin-3-yl)-1H-pyrazole-4-carboxamide]
- IC50 [1]: 7.6 nM
- IC50 (human EGFR kinase domain): > 50000 nM
- IC50 (human whole blood): 50 nM
- IC50 (Human B cells): 29.6 nM

Structure (SMILES): C=CC(=O)N1CCC[C@H](n2nc(-c3ccc(Oc4ccccc4)cc3)c(C(N)=O)c2N)C1 [Example 126, 1-[(3S)-1-acryloylpiperidin-3-yl]-5-amino-3-(4-phenoxyphenyl)-1H-pyrazole-4-carboxamide]
- IC50 (human EGFR kinase domain): 802 nM
- IC50 (human whole blood; Homo sapiens): 201 nM
- IC50 (Human B cells; Homo sapiens): 20.9 nM

Structure (SMILES): C=CC(=O)N1CCC[C@@H](n2nc(-c3ccc(Oc4ccc(Cl)cc4)cc3)c(C(N)=O)c2N)C1 [Example 130, 1-[(3R)-1-acryloylpiperidin-3-yl]-5-amino-3-[4-(4-chlorophenoxy)phenyl]-1H-pyrazole-4-carboxamide]
- IC50 [1]: 0.17 nM
- IC50 (human EGFR kinase domain): 7.9 nM
- IC50 (human whole blood): 133 nM
- IC50 (Human B cells): 0.15 nM

Structure (SMILES): CC/C=C/C(=O)N1CCC[C@@H](n2nc(-c3ccc(Oc4ccc(F)cc4F)cc3)c(C(N)=O)c2N)C1 [Example 143, 5-amino-3-[4-(2,4-difluorophenoxy)phenyl]-1-{(3R)-1-[(2E)-pent-2-enoyl]piperidin-3-yl}-1H-pyrazole-4-carboxamide]
- IC50 [1]: 125 nM

Structure (SMILES): NC(=O)c1c(-c2ccc(Oc3ccc(F)cc3F)cc2)nn([C@@H]2CCCN(C(=O)/C=C/C(F)F)C2)c1N [Example 144, 5-amino-1-{(3R)-1-[(2E)-4,4-difluorobut-2-enoyl]piperidin-3-yl}-3-[4-(2,4-difluorophenoxy)phenyl]-1H-pyrazole-4-carboxamide]
- IC50 [1]: 0.41 nM
- IC50 (Human B cells): 0.84 nM

Structure (SMILES): NC(=O)c1c(-c2ccc(Oc3ccc(F)cc3F)cc2)nn([C@@H]2CCCN(C(=O)/C(F)=C/CO)C2)c1N [Example 146, 5-amino-3-[4-(2,4-difluorophenoxy)phenyl]-1-{(3R)-1-[(2Z)-2-fluoro-4-hydroxybut-2-enoyl]piperidin-3-yl}-1H-pyrazole-4-carboxamide]
- IC50 [1]: 48 nM

Structure (SMILES): CC(C)(O)/C=C/C(=O)N1CCC[C@@H](n2nc(-c3ccc(Oc4ccc(F)cc4F)cc3)c(C(N)=O)c2N)C1 [Example 147, 5-amino-3-[4-(2,4-difluorophenoxy)phenyl]-1-{(3R)-1-[(2E)-4-hydroxy-4-methylpent-2-enoyl]piperidin-3-yl}-1H-pyrazole-4-carboxamide]
- IC50 [1]: 241 nM

Structure (SMILES): C[C@H](O)/C=C/C(=O)N1CCC[C@@H](n2nc(-c3ccc(Oc4ccc(F)cc4F)cc3)c(C(N)=O)c2N)C1 [Example 148, 5-amino-3-[4-(2,4-difluorophenoxy)phenyl]-1-{(3R)-1-[(2E,4S)-4-hydroxypent-2-enoyl]piperidin-3-yl}-1H-pyrazole-4-carboxamide]
- IC50 [1]: 39 nM

Structure (SMILES): C[C@@H](O)/C=C/C(=O)N1CCC[C@@H](n2nc(-c3ccc(Oc4ccc(F)cc4F)cc3)c(C(N)=O)c2N)C1 [Example 149, 5-amino-3-(4-(2,4-difluorophenoxy)phenyl)-1-((R)-1-((R,E)-4-hydroxypent-2-enoyl)piperidin-3-yl)-1H-pyrazole-4-carboxamide]
- IC50 [1]: 52 nM

Structure (SMILES): C=C(F)C(=O)N1CCC[C@@H](n2nc(-c3ccc(Oc4ccc(F)cc4F)cc3)c(C(N)=O)c2N)C1 [Example 150, 5-amino-3-[4-(2,4-difluorophenoxy)phenyl]-1-[(3R)-1-(2-fluoroacryloyl)piperidin-3-yl]-1H-pyrazole-4-carboxamide]
- IC50 [1]: 5.3 nM

Structure (SMILES): N#C/C=C/C(=O)N1CCC[C@@H](n2nc(-c3ccc(Oc4ccc(F)cc4F)cc3)c(C(N)=O)c2N)C1 [Example 152, 5-amino-1-{(3R)-1-[(2E)-3-cyanoprop-2-enoyl]piperidin-3-yl}-3-[4-(2,4-difluorophenoxy)phenyl]-1H-pyrazole-4-carboxamide]
- IC50 [1]: 1.5 nM

Structure (SMILES): C=CC(=O)N1CCC[C@@H](n2nc(-c3ccc(Oc4ncc(Cl)cc4F)cc3)c(C(N)=O)c2N)C1 [Example 153, 1-[(3R)-1-acryloylpiperidin-3-yl]-5-amino-3-{4-[(5-chloro-3-fluoropyridin-2-yl)oxy]phenyl}-1H-pyrazole-4-carboxamide]
- IC50 [1]: 0.48 nM
- IC50 (Human B cells): 0.56 nM

Structure (SMILES): NC(=O)c1c(-c2ccc(Oc3ncc(Cl)cc3F)cc2)nn([C@@H]2CCCN(C(=O)/C=C/CO)C2)c1N [Example 154, 5-amino-3-{4-[(5-chloro-3-fluoropyridin-2-yl)oxy]phenyl}-1-{(3R)-1-[(2E)-4-hydroxybut-2-enoyl]piperidin-3-yl}-1H-pyrazole-4-carboxamide]
- IC50 [1]: 49 nM

Structure (SMILES): NC(=O)c1c(-c2ccc(Oc3ncc(Cl)cc3F)cc2)nn([C@@H]2CCCN(C(=O)/C=C/C(F)F)C2)c1N [Example 155, 5-amino-3-{4-[(5-chloro-3-fluoropyridin-2-yl)oxy]phenyl}-1-{(3R)-1-[(2E)-4,4-difluorobut-2-enoyl]piperidin-3-yl}-1H-pyrazole-4-carboxamide]
- IC50 [1]: 0.7 nM
- IC50 (human EGFR kinase domain): 106 nM
- IC50 (Human B cells): 2 nM

Structure (SMILES): NC(=O)c1c(-c2ccc(Oc3ncc(Cl)cc3F)cc2)nn([C@@H]2CCCN(C(=O)/C=C/CF)C2)c1N [Example 156, 5-amino-3-{4-[(5-chloro-3-fluoropyridin-2-yl)oxy]phenyl}-1-{(3R)-1-[(2E)-4-fluorobut-2-enoyl]piperidin-3-yl}-1H-pyrazole-4-carboxamide]
- IC50 [1]: 1.4 nM
- IC50 (human EGFR kinase domain): 381 nM
- IC50 (Human B cells): 2.5 nM

Structure (SMILES): NC(=O)c1c(-c2ccc(Oc3ccc(Cl)cn3)cc2)nn([C@@H]2CCCN(C(=O)/C=C/C(F)F)C2)c1N [Example 159, 5-amino-3-{4-[(5-chloropyridin-2-yl)oxy]phenyl}-1-{(3R)-1-[(2E)-4,4-difluorobut-2-enoyl]piperidin-3-yl}-1H-pyrazole-4-carboxamide]
- IC50 [1]: 1.3 nM
- IC50 (human EGFR kinase domain): 311 nM
- IC50 (Human B cells): 2.8 nM

Structure (SMILES): NC(=O)c1c(-c2ccc(Oc3ccc(Cl)cn3)cc2)nn(C2CCCN(C(=O)/C=C/CF)C2)c1N (centres unmarked) [Example 160]
- IC50 [1]: 5.5 nM
- IC50 (human EGFR kinase domain): 890 nM
- IC50 (Human B cells): 2.9 nM

Structure (SMILES): NC(=O)c1c(-c2ccc(Oc3cccc(C(F)(F)F)n3)cc2)nn([C@@H]2CCCN(C(=O)/C=C/C(F)F)C2)c1N [Example 163, 5-amino-1-{(3R)-1-[(2E)-4,4-difluorobut-2-enoyl]piperidin-3-yl}-3-(4-{[6-(trifluoromethyl)pyridin-2-yl]oxy}phenyl)-1H-pyrazole-4-carboxamide]
- IC50 [1]: 1.3 nM
- IC50 (Human B cells): 0.92 nM

Structure (SMILES): NC(=O)c1c(-c2ccc(Oc3cccc(C(F)(F)F)n3)cc2)nn([C@@H]2CCCN(C(=O)/C=C/CF)C2)c1N [Example 164, 5-amino-1-{(3R)-1-[(2E)-4-fluorobut-2-enoyl]piperidin-3-yl}-3-(4-{[6-(trifluoromethyl)pyridin-2-yl]oxy}phenyl)-1H-pyrazole-4-carboxamide]
- IC50 [1]: 3.2 nM
- IC50 (human EGFR kinase domain): 3360 nM
- IC50 (Human B cells): 11.4 nM

Structure (SMILES): C=C(F)C(=O)N1CCC[C@@H](n2nc(-c3ccc(Oc4cccc(C(F)(F)F)n4)cc3)c(C(N)=O)c2N)C1 [Example 165]
- IC50 [1]: 4.4 nM

Structure (SMILES): N#C/C=C/C(=O)N1CCC[C@@H](n2nc(-c3ccc(Oc4cccc(C(F)(F)F)n4)cc3)c(C(N)=O)c2N)C1 [Example 166, 5-amino-1-{(3R)-1-[(2E)-3-cyanoprop-2-enoyl]piperidin-3-yl}-3-(4-{[6-(trifluoromethyl)pyridin-2-yl]oxy}phenyl)-1H-pyrazole-4-carboxamide]
- IC50 [1]: 2.2 nM
